pIC50: −log10 of the molar value.

The target of assay [1] is Btk (Rattus norvegicus, UniProt Q5S255). The assay can be described thus: Inhibition of Btk activity in blood (in vitro B cell activation assay, CD86, rat whole blood). As to conditions: Lewis rat whole blood diluted to 50%, anti-rat IgM + rat IL-4, 24 hours, CD86 on CD45RA positive B cells. In kind it is cell-based. As to the method: Alternatively, the inhibitory activity of the present compounds in blood was assessed in the following in vitro B cell activation assay. Whole blood was collected from the abdominal aorta of anaesthetized adult male Lewis rats and was anticoagulated with 100 U/ml sodium heparin. Blood was then diluted to 50% with high glucose DMEM (Amimed) supplemented with […] penicillin, […], 2 mM L-glutamin, 50 mg/ml dextran 40 and 5% FCS (Fetaclone I, Gibco). Then, 190 μl prediluted blood was mixed in 96 well U-bottomed microtiter plates (Nunc) with 10 μl of serial dilutions of test compounds in DMSO. […] Activation of B cells was measured by flow cytometry after staining for the B cell subset with PE-Cy5-labeled anti-ratCD45RA (Beckton-Dickinson) and for the activation marker CD86 (PE-labeled anti-rat CD86 (Beckton-Dickinson). All staining procedures were performed at RT for 30 min in the dark in 96-deep well V-bottomed microtiter plates (Corning) with BD Lysing Solution (Beckton-Dickinson).
Cytometric data was acquired on a FACScalibur flow cytometer (BD Biosciences) and the subpopulation of lymphocytes were gated according to size and granularity and further analyzed for expression of CD45RA and the activation markers. Data for the inhibition of B cell activation were calculated from the percentage of cells positively stained for activation markers within the CD45RA positive population.

The target of assay [2] is full-length human recombinant BTK (Homo sapiens (Human), UniProt Q06187). In words: Inhibition of Btk enzymatic activity (biochemical enzyme assay, Caliper). Particulars: 6.4 nM enzyme solution, 164 μM ATP solution, 30° C., 60 minutes. As for the experimental part: The inhibitory activity of the present compounds against Btk was assessed in a biochemical enzyme assay. […] The assay plates were prepared by addition of 50 nl per well of compound solution in 90% DMSO. […] Kinase reactions were analyzed on a Caliper LC3000 workstation by separating phosphorylated and unphosphorylated peptides and kinase activities were calculated from the amounts of newly formed phospho-peptide.
full-length human recombinant BTK, sequence (Q06187 whole entry): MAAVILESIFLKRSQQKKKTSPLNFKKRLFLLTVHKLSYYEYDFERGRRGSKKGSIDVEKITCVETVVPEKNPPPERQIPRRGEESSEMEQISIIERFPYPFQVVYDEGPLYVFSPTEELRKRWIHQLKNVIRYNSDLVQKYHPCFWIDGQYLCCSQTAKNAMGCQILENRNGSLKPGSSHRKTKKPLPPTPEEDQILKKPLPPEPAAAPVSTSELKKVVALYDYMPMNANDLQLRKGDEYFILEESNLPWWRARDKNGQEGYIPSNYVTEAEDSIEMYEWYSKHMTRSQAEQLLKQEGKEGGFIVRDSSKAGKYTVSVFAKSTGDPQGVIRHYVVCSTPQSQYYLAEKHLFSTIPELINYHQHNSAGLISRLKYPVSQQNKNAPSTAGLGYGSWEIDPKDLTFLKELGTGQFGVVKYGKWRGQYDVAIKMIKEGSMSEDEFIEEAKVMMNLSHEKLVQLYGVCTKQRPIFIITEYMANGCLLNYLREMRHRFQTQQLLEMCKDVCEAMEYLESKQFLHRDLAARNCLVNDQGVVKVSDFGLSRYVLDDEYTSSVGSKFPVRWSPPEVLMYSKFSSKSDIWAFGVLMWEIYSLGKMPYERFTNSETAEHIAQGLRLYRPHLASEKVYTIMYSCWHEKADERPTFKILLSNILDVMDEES

Btk, sequence (Q5S255 1-660): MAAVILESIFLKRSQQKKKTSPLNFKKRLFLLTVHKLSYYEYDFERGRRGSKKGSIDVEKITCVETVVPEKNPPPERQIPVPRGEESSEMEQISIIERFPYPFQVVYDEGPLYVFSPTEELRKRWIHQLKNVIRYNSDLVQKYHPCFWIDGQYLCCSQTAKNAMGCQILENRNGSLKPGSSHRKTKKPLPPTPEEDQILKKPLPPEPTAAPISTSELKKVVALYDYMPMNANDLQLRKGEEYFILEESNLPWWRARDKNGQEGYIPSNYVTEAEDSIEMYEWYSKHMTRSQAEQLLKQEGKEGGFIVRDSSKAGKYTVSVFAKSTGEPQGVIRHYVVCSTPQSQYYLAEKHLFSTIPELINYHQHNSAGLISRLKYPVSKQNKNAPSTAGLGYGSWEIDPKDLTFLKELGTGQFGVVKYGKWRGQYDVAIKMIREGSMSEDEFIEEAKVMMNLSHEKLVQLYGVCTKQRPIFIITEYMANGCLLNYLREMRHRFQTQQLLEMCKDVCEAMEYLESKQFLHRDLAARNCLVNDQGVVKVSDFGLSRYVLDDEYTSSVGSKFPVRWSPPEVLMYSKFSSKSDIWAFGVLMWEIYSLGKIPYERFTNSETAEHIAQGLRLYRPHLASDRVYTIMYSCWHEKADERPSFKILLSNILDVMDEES

Consider `CC#CC(=O)N1C[C@@H](OC)C[C@H]1COc1c(N)ncnc1-c1cc(F)cc(NC(=O)c2ccc(C3CC3)cc2F)c1C` [Example 30, N-(3-(6-Amino-5-(((2S,4S)-1-(but-2-ynoyl)-4-methoxypyrrolidin-2-yl)methoxy)pyrimidin-4-yl)-5-fluoro-2-methylphenyl)-4-cyclopropyl-2-fluorobenzamide], for which the values for the pIC50 in assay [1] and in assay [2] were 6.65 and 8.22, respectively.
The corresponding values for `C#CC(=O)N1CC[C@H]1COc1c(N)ncnc1-c1cc(F)cc(NC(=O)c2ccc(C3CC3)cc2F)c1C` [Example 34, (S)—N-(3-(6-Amino-5-((1-propioloylazetidin-2-yl)methoxy)pyrimidin-4-yl)-5-fluoro-2-methylphenyl)-4-cyclopropyl-2-fluorobenzamide] are 6.68 and 8.70.
On the same counts, the results for `CC#CC(=O)N[C@@H](C)COc1c(N)ncnc1-c1cc(F)cc(NC(=O)c2ccc(C3CC3)cc2F)c1C` [Example 18, (S)—N-(3-(6-Amino-5-(2-(but-2-ynamido)propoxy)pyrimidin-4-yl)-5-fluoro-2-methylphenyl)-4-cyclopropyl-2-fluorobenzamide] are 6.38 and 9.00.
The corresponding values for `C=CC(=O)N1C[C@H](OC)C[C@H]1COc1c(N)ncnc1-c1cc(F)cc(N2CCc3cc(C4CC4)ccc3C2=O)c1CO` [Example 28, 2-(3-(5-(((2S,4R)-1-Acryloyl-4-methoxypyrrolidin-2-yl)methoxy)-6-aminopyrimidin-4-yl)-5-fluoro-2-(hydroxymethyl)phenyl)-6-cyclopropyl-3,4-dihydroisoquinolin-1(2H)-one] are 7.48 and 9.00.
Take `C=CC(=O)N1CC[C@H](OC)[C@H]1COc1c(N)ncnc1-c1cc(F)cc(NC(=O)c2ccc(C3CC3)cc2F)c1C` [Example 38, N-(3-(5-(((2R,3S)-1-Acryloyl-3-methoxypyrrolidin-2-yl)methoxy)-6-aminopyrimidin-4-yl)-5-fluoro-2-methylphenyl)-4-cyclopropyl-2-fluorobenzamide]: the values for the pIC50 in assay [1] and in assay [2] were 7.15 and 8.70, respectively.
For `C=CC(=O)N(C)CCOc1c(N)ncnc1-c1cccc(-n2ccc3cc(C4CC4)cc(F)c3c2=O)c1` [Example 12, N-(2-((4-Amino-6-(3-(6-cyclopropyl-8-fluoro-1-oxoisoquinolin-2(1H)-yl)phenyl)pyrimidin-5-yl)oxy)ethyl)-N-methylacrylamide], the pIC50 was 6.34 in assay [1] and 7.92 in assay [2].
The corresponding values for `CC#CC(=O)N(C)[C@@H](C)COc1c(N)ncnc1-c1cc(F)cc(NC(=O)c2ccc(C3CC3)cc2F)c1C` [Example 20, (S)—N-(3-(6-Amino-5-(2-(N-methylbut-2-ynamido)propoxy)pyrimidin-4-yl)-5-fluoro-2-methylphenyl)-4-cyclopropyl-2-fluorobenzamide] are 6.48 and 8.30.
Regarding `C=CC(=O)N1C[C@H](C#N)C[C@H]1COc1c(N)ncnc1-c1cc(F)cc(NC(=O)c2ccc(C3CC3)cc2F)c1C` [Example 39, N-(3-(5-(((2S,4R)-1-Acryloyl-4-cyanopyrrolidin-2-yl)methoxy)-6-aminopyrimidin-4-yl)-5-fluoro-2-methylphenyl)-4-cyclopropyl-2-fluorobenzamide], the pIC50 in assay [1] was 6.75; in assay [2] it was 9.00.
Turning to `CC#CC(=O)N1CC(Oc2c(N)ncnc2-c2cc(F)cc(NC(=O)c3ccc(C4CC4)cc3F)c2C)C1` [Example 4, N-(3-(6-Amino-5-((1-(but-2-ynoyl)azetidin-3-yl)oxy)pyrimidin-4-yl)-5-fluoro-2-methylphenyl)-4-cyclopropyl-2-fluorobenzamide], the pIC50 in assay [1] was 6.42; in assay [2], 8.05.
The corresponding values for `C=CC(=O)N1C[C@@H](OC)C[C@H]1COc1c(N)ncnc1-c1cc(F)cc(NC(=O)c2ccc(C3CC3)cc2F)c1C` [Example 29, N-(3-(5-(((2S,4S)-1-Acryloyl-4-methoxypyrrolidin-2-yl)methoxy)-6-aminopyrimidin-4-yl)-5-fluoro-2-methylphenyl)-4-cyclopropyl-2-fluorobenzamide] are 6.87 and 8.40.
On the same counts, the results for `C=CC(=O)N[C@@H](C)COc1c(N)ncnc1-c1cc(F)cc(NC(=O)c2ccc(C3CC3)cc2F)c1C` [Example 17, (S)—N-(3-(5-(2-Acrylamidopropoxy)-6-aminopyrimidin-4-yl)-5-fluoro-2-methylphenyl)-4-cyclopropyl-2-fluorobenzamide] are 6.61 and 8.30.
For the compound `C=CC(=O)NC1(COc2c(N)ncnc2-c2cc(F)cc(NC(=O)c3ccc(C4CC4)cc3F)c2C)CC1` [Example 16, N-(3-(5-((1-Acrylamidocyclopropyl)methoxy)-6-aminopyrimidin-4-yl)-5-fluoro-2-methylphenyl)-4-cyclopropyl-2-fluorobenzamide], the figures for the negative logarithm of the IC50 (pIC50) in assay [1] and in assay [2] were 6.25 and 7.82, respectively.
The corresponding values for `CC#CC(=O)N1CCC[C@H]1COc1c(N)ncnc1-c1cc(F)cc(NC(=O)c2ccc(C3CC3)cc2F)c1C` [Example 23, (S)—N-(3-(6-Amino-5-((1-(but-2-ynoyl)pyrrolidin-2-yl)methoxy)pyrimidin-4-yl)-5-fluoro-2-methylphenyl)-4-cyclopropyl-2-fluorobenzamide] are 7.24 and 9.00.
On the same counts, the results for `C=CC(=O)N1CCC[C@H]1COc1c(N)ncnc1-c1cc(F)cc(N2CCc3cc(C4CC4)ccc3C2=O)c1CO` [Example 24, (S)-2-(3-(5-((1-Acryloylpyrrolidin-2-yl)methoxy)-6-aminopyrimidin-4-yl)-5-fluoro-2-(hydroxymethyl)phenyl)-6-cyclopropyl-3,4-dihydroisoquinolin-1(2H)-one] are 7.49 and 9.30.
With `C=CC(=O)N1C[C@H](F)C[C@H]1COc1c(N)ncnc1-c1cc(F)cc(NC(=O)c2ccc(C3CC3)cc2F)c1C` [Example 31, N-(3-(5-(((2S,4R)-1-Acryloyl-4-fluoropyrrolidin-2-yl)methoxy)-6-aminopyrimidin-4-yl)-5-fluoro-2-methylphenyl)-4-cyclopropyl-2-fluorobenzamide], the results for the pIC50 in assay [1] and in assay [2] were 7.60 and 8.70, respectively.
The corresponding values for `C=CC(=O)N1C[C@H](OC)C[C@H]1COc1c(N)ncnc1-c1cc(F)cc(NC(=O)c2ccc(C3CC3)cc2F)c1C` [Example 26, N-(3-(5-(((2S,4R)-1-Acryloyl-4-methoxypyrrolidin-2-yl)methoxy)-6-aminopyrimidin-4-yl)-5-fluoro-2-methylphenyl)-4-cyclopropyl-2-fluorobenzamide] are 7.29 and 9.40.
On the same counts, the results for `COC/C=C/C(=O)N(C)CCOc1c(N)ncnc1-c1cc(F)cc(NC(=O)c2ccc(C3CC3)cc2F)c1C` [Example 9, (E)-N-(3-(6-Amino-5-(2-(4-methoxy-N-methylbut-2-enamido)ethoxy)pyrimidin-4-yl)-5-fluoro-2-methylphenyl)-4-cyclopropyl-2-fluorobenzamide] are 6.62 and 8.00.
The corresponding values for `C=CC(=O)N1C[C@@H](C#N)C[C@H]1COc1c(N)ncnc1-c1cc(F)cc(NC(=O)c2ccc(C3CC3)cc2F)c1C` [Example 40, N-(3-(5-(((2S,4S)-1-Acryloyl-4-cyanopyrrolidin-2-yl)methoxy)-6-aminopyrimidin-4-yl)-5-fluoro-2-methylphenyl)-4-cyclopropyl-2-fluorobenzamide] are 7.10 and 8.70.
